Patent US20260226048A1, “MULTI-CYCLIC IRAK AND FLT3 INHIBITING COMPOUNDS AND USES THEREOF” (CHILDREN'S HOSPITAL MEDICAL CENTER, priority 2023, published 2026)

Columns and labels:
FLT3 ITD, F691L = target: T1, FLT3 ITD, F691L (Homo sapiens, UniProt P36888, F691L, form not given); assay: DiscoverX KINOMEscan competition binding assay, FLT3 ITD, F691L; conditions: 11-point 3-fold dilution
T1 construct: fused on or other part: DNA tag for qPCR detection (kinase-tagged T7 phage, or made in HEK-293 cells and then tagged with DNA)
T1 sequence (P36888 1-993 F691L): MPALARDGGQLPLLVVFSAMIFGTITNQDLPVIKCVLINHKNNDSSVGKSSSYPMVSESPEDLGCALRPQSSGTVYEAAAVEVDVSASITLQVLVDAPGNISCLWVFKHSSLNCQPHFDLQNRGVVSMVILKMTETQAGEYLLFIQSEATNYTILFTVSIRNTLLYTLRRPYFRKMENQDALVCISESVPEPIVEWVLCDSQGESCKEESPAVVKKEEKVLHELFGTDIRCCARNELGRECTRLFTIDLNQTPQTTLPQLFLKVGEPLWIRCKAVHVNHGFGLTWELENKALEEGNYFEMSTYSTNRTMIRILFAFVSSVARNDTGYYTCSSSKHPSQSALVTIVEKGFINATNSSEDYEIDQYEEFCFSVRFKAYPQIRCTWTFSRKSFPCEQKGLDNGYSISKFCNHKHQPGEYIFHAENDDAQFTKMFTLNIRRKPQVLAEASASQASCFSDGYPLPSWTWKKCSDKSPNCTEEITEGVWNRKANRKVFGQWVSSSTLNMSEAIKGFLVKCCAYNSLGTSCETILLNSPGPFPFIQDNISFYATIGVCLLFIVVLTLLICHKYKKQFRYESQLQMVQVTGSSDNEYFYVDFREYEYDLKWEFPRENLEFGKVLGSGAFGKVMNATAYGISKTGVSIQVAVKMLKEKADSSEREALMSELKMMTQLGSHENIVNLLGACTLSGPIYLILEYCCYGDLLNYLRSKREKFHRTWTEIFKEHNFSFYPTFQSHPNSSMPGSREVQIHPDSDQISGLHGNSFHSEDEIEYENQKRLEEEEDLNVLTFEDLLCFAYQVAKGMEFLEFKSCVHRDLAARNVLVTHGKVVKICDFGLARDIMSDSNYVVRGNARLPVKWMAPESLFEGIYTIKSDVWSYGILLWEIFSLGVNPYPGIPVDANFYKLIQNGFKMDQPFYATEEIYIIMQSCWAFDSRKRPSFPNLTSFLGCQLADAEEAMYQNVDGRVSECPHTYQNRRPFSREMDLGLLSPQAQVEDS
Excerpt: (§1) […]. […] As a result, the data report thermodynamic interaction affinities (Kd values), rather than IC50 values that are dependent on ATP concentrations. The assay uses a DNA-tagged version of the protein kinase, and an immobilized ligand bound to a solid support. Compounds that directly or indirectly prevent kinase binding to the immobilized ligand reduce the amount of kinase captured on the solid support, which is detected using an ultra-sensitive qPCR method. Affinity constants reported from the assay have been reported to be independent of the immobilized ligand used that is coupled to the solid support (See supplemental information in Fabian, M. A. et. al., (2005) Nat. Biotechnol. 23, 329-336; Wodicka, L. M. et. al., (2010) Chem. Biol. 17, 1241-1249.)
(§2) Kinase-tagged T7 phage strains were prepared in an E. coli host derived from the BL21 strain. E. coli were grown to log-phase and infected with T7 phage and incubated with shaking at 32° C. until lysis. The lysates were centrifuged and filtered to remove cell debris. The remaining kinases were produced in HEK-293 cells and subsequently tagged with DNA for qPCR detection. Streptavidin-coated magnetic beads were treated with biotinylated small molecule ligands for 30 minutes at room temperature to generate affinity resins for kinase assays. The liganded beads were blocked with excess biotin and washed with blocking buffer (SeaBlock (Pierce), 1% BSA, 0.05% Tween 20, 1 mM DTT) to remove unbound ligand and to reduce non-specific binding. […] Test compounds were prepared as 111× stocks in 100% DMSO. Kds were determined using an 11-point 3-fold compound dilution series with three DMSO control points. All compounds for Kd measurements are distributed by acoustic transfer (non-contact dispensing) in 100% DMSO. The compounds were then diluted directly into the assays such that the final concentration of DMSO was 0.9%. All reactions were performed in polypropylene 384-well plates. Each was a final volume of 0.02 mL. […] The kinase concentration in the eluates was measured by qPCR.
(§3) Binding constants (Kds) were calculated with a standard dose-response curve using the Hill equation. The Hill Slope was set to −1. Curves were fitted using a non-linear least square fit with the Levenberg-Marquardt algorithm.

FLT3 N841I = target: T2, FLT3 N841I (Homo sapiens, UniProt P36888, N841I); assay: DiscoverX KINOMEscan competition binding assay, FLT3 N841I; conditions: 11-point 3-fold dilution
T2 construct: purchased DiscoverX (KINOMEscan); host or cells: E. coli BL21-derived host (T7 phage) or HEK-293
T2 sequence (P36888 27-993 N841I): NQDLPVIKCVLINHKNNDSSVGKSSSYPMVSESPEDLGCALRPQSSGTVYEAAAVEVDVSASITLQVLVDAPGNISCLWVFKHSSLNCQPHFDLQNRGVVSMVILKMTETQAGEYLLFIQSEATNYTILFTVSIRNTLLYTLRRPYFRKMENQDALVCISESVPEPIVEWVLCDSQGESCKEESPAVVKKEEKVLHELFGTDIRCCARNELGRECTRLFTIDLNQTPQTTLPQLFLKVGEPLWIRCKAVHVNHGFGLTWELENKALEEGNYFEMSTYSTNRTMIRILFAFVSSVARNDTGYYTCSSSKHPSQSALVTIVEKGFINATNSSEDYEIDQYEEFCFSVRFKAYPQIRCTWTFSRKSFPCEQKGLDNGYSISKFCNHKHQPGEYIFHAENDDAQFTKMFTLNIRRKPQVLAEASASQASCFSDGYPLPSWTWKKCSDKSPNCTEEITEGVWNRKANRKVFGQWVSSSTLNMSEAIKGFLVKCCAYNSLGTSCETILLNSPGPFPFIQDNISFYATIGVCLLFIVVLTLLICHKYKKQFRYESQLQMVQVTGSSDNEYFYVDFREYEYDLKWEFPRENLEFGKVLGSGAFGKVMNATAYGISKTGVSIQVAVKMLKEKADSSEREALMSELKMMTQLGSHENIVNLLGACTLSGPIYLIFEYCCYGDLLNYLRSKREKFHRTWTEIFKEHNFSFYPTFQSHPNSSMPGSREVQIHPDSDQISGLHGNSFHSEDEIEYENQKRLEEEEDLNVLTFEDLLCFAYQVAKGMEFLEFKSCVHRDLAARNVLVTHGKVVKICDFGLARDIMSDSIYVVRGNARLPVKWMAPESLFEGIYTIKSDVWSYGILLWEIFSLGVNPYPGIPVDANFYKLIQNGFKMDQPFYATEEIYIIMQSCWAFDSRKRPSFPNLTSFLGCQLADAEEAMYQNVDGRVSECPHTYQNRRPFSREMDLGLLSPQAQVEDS
Excerpt: as §1, §2, §3

## COc1cc2ncc(-c3nc(N[C@H]4CNCC[C@@H]4F)ncc3F)n2nc1C1CC1 [Compound 1a, 4-(6-cyclopropyl-7-methoxyimidazo[1,2-b]pyridazin-3-yl)-5-fluoro-N-((3S,4S)-4-fluoropiperidin-3-yl)pyrimidin-2-amine]
FLT3 ITD, F691L
  Kd: < 0.17 nM
FLT3 N841I
  Kd: < 0.17 nM

## FC(F)COc1cc2ncc(-c3ccnc(N[C@H]4CNCC[C@@H]4F)n3)n2nc1C1CC1 [Compound 4a, 4-(6-cyclopropyl-7-(2,2-difluoroethoxy)imidazo[1,2-b]pyridazin-3-yl)-N-((3 S,4S)-4-fluoropiperidin-3-yl)pyrimidin-2-amine]
FLT3 ITD, F691L
  Kd: < 0.17 nM
FLT3 N841I
  Kd: 0.88 nM

## COc1cc2ncc(-c3nc(N[C@H]4CNCC[C@@H]4F)ncc3F)n2nc1C(C)(C)O [Compound 45a, 2-(3-(5-fluoro-2-(((3S,4S)-4-fluoropiperidin-3-yl)amino)pyrimidin-4-yl)-7-methoxyimidazo[1,2-b]pyridazin-6-yl)propan-2-ol]
FLT3 ITD, F691L
  Kd: 0.19 nM
FLT3 N841I
  Kd: 1.1 nM

## CC(C)(O)c1ccc2ncc(-c3nc(N[C@H]4CNCC[C@@H]4F)ncc3F)n2c1 [Compound 46a, 2-(3-(5-fluoro-2-(((3S,4S)-4-fluoropiperidin-3-yl)amino)pyrimidin-4-yl)imidazo[1,2-a]pyridin-6-yl)propan-2-ol]
FLT3 ITD, F691L
  Kd: 0.22 nM
FLT3 N841I
  Kd: 3.2 nM

## COc1cc2ncc(-c3nc(N[C@H]4CNCC[C@@H]4F)ncc3F)n2nc1C1COC1 [Compound 92a, 5-fluoro-N-((3S,4S)-4-fluoropiperidin-3-yl)-4-(7-methoxy-6-(oxetan-3-yl)imidazo[1,2-b]pyridazin-3-yl)pyrimidin-2-amine]
FLT3 ITD, F691L
  Kd: < 0.17 nM
FLT3 N841I
  Kd: 0.18 nM

## CC(C)(O)c1cn2c(-c3nc(N[C@H]4CNCC[C@@H]4F)ncc3F)cnc2cn1 [Compound 100a, 2-(3-(5-fluoro-2-(((3S,4S)-4-fluoropiperidin-3-yl)amino)pyrimidin-4-yl)imidazo[1,2-a]pyrazin-6-yl)propan-2-ol]
FLT3 ITD, F691L
  Kd: 3.4 nM
FLT3 N841I
  Kd: 16 nM

## COc1cc2ncc(-c3nc(N[C@H]4CNCC[C@@H]4F)ncc3F)n2nc1N1CCCS1(=O)=O [Compound 112a, 2-(3-(5-fluoro-2-(((3S,4S)-4-fluoropiperidin-3-yl)amino)pyrimidin-4-yl)-7-methoxyimidazo[1,2-b]pyridazin-6-yl)isothiazolidine 1,1-dioxide]
FLT3 ITD, F691L
  Kd: < 0.17 nM
FLT3 N841I
  Kd: 0.2 nM
